According to patent publication US7576128B2 (priority 2004, dated 2009):
Changes are numbered by the printed parent chain. Where two headings read alike, the source gives them in different places.

Tests used:
[1] = target: T1, androgen receptor (Homo sapiens, UniProt P10275); assay: AR antagonist cell assay, MDA-MB453-MMTV clone 54-19 luciferase reporter; assay type: cell-based
T1 sequence (P10275 1-920 Q868H): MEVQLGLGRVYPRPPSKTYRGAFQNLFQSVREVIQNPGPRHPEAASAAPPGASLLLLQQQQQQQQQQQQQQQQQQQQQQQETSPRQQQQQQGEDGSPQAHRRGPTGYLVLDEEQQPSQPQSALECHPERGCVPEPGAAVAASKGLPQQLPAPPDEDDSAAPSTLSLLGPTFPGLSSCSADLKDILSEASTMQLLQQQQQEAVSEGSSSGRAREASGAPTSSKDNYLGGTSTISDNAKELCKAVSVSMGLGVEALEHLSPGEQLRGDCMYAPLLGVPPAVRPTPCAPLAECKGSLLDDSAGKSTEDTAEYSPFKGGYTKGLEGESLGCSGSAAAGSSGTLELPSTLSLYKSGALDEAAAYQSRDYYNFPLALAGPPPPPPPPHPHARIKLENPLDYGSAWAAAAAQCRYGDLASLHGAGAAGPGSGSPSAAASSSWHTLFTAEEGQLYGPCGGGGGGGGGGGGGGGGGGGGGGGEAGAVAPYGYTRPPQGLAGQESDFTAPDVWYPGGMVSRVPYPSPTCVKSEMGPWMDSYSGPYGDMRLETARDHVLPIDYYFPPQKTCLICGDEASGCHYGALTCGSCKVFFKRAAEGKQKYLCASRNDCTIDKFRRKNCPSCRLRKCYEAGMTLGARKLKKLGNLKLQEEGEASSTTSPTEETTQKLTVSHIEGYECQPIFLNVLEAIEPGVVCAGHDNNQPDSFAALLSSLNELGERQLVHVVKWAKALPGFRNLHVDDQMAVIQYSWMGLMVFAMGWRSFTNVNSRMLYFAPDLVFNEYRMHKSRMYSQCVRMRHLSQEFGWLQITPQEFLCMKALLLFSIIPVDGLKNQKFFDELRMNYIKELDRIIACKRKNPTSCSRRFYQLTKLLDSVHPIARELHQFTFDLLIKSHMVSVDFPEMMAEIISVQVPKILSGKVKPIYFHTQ
Description: The compounds ability to antagonize the effects of androgen on the androgen receptor were determined in a whole cell assay as described immediately below.
This cell line is a stable transfected cell line with MDA-MB453 cell background (a human breast tumor cell line expressing androgen receptor). A MMTV minimal promoter containing ARE was first cloned in front of a firefly luciferase reporter gene. Then the cascade was cloned into transfection vector pUV120puro. Electroporation method was used for transfecting MDA-MB-453 cell. Puromycin resistant stable cell line was selected.
• 1. Cells are maintained in culture medium, splitting cells when they reach 80-90% confluence • 2. To test compounds, 10,000 cells/well are plated to opaque 96 cell culture plate in 100 ul/well plating medium, culture for overnight at 37° C. in cell culture incubator • 3. Carefully remove plating medium, then add 80 ul/well of pre-warmed assay medium, add 10 ul/well testing compound (final concentration at) 1000 nM, 200 nM, 40 nM, 8 nM, 1.6 nM, and 0.32 nM), incubate at 37° C. for 30 minutes • 4. Add 10 ul/well freshly prepared DHT (final concentration at 100 pM) to each well, incubate at 37° C. for 17 hr (overnight) • 5.
The results are reported as the mean of multiple tests as described below (the numbers of tests are indicated in the footnote). N.D. denotes that the compound was not tested.

[2] = target: T2, hAR (human androgen receptor) (Homo sapiens, UniProt P10275); assay: Competitive binding analysis on baculovirus/Sf9 generated hAR extracts with 3H-DHT tracer
T2 construct: made in house; host or cells: baculovirus/Sf9 insect cells
T2 sequence (P10275 1-920): T1 sequence (P10275 1-920 Q868H) with H868Q
Description: The description below describes how the assay was carried out.
Competitive binding analysis was performed on baculovirus/Sf9 generated hAR extracts in the presence or absence of different concentrations of test agent and a fixed concentration of ^3H-dihydrotestosterone (^3H-DHT) as tracer. This binding assay method is a modification of a protocol previously described (Liao S., et. al. J. Steroid Biochem. 20:11-17 1984). Briefly, progressively decreasing concentrations of compounds are incubated in the presence of hAR extract (Chang et al. P.N.A.S. Vol. 89, pp. 5546-5950,1992), hydroxylapatite, and 1 nM ^3 H-DHT for one hour at 4° C. Subsequently, the binding reactions are washed three times to completely remove excess unbound ^3 H-DHT. hAR bound ^3H-DHT levels are determined in the presence of compounds (=i.e competitive binding) and compared to levels bound when no competitor is present (=i.e. maximum binding). Compound binding affinity to the hAR is expressed as the concentration of compound at which one half of the maximum binding is inhibited.

[3] = MDA-MB453-MMTV clone 54-19, 100 pM DHT, 17 hr; mean of multiple tests; read-out: AR Cell IC50
[4] = hAR extract, 1 nM 3H-DHT, one hour at 4° C., mean of multiple tests, read-out: AR Binding IC50
[5] = read-out: AR Cell IC50; MDA-MB453-MMTV clone 54-19, 100 pM DHT, 17 hr; mean of multiple tests

Row | SMILES | IC50 [1, 3] [nM] | IC50 ([2]; read-out: AR Binding IC50) [nM] | IC50 [2, 4] [nM] | further results
1 | CC(O)C(C)COc1ccc(C#N)c(C(F)(F)F)c1 (stereo not drawn) [Example 10, 4-(3-Hydroxy-2-meth-yl-butoxy)-2-tri-fluoromethyl-benzonitrile] | 274 | 70 |  | 
2 | CC(C)(CO)COc1ccc(C#N)c(C(F)(F)F)c1 [Example 11, 4-(3-Hydroxy-2,2-di-methyl-propoxy)-2-tri-fluoromethyl-benzonitrile] |  |  | 706 | 
3 | CCCC(CCCO)Oc1ccc(C#N)c(C(F)(F)F)c1 (stereo not drawn) [Example 21, 4-(4-Hydroxy-1-pro-pyl-butoxy)-2-tri-fluoromethyl-benzonitrile] |  | 808 |  | 
4 | CC(O)CCCOc1ccc(C#N)c(C(F)(F)F)c1 (stereo not drawn) [Example 19] |  | 505 |  | IC50 [1, 5]: > 1000 nM
5 | CC(C)C(O)C(C)(C)COc1ccc(C#N)c(C(F)(F)F)c1 (stereo not drawn) [Example 13, 4-(3-Hydroxy-2,2,4-tri-methyl-pentyloxy)-2-tri-fluoromethyl-benzonitrile] |  |  | 442 | 
6 | N#Cc1ccc(OCCCCCO)cc1C(F)(F)F [Example 24, 4-(5-Hydroxy-pentyloxy)-2-tri-fluoromethyl-benzonitrile] | > 1000 |  | 632 | 
7 | C=CCC(O)CCOc1ccc(C#N)c(C(F)(F)F)c1 (stereo not drawn) [Example 9, 4-(3-Hydroxy-hex-5-enyl-oxy)-2tri-fluoromethyl-benzonitrile] |  |  | 268 | 
8 | CC(O)CCC(C)Oc1ccc(C#N)c(C(F)(F)F)c1 (stereo not drawn) [Example 22, 4-(4-Hydroxy-1-meth-yl-pentyloxy)-2-tri-fluoromethyl-benzonitrile] |  |  | 185 | IC50 [1, 5]: > 1000 nM
9 | CCCC(O)CCCOc1ccc(C#N)c(C(F)(F)F)c1 (stereo not drawn) [Example 20, 4-(4-Hydroxy-heptyloxy)-2-tri-fluoromethyl-benzontrile] | 498 |  | 243 | 
10 | CC(C)(O)CCOc1ccc(C#N)c(C(F)(F)F)c1 [Example 12, 4-(3-Hydroxy-3-meth-yl-butoxy)-2-tri-fluoromethyl-benzonitrile] | 269 | 27 |  | 
11 | CC(CCO)CCOc1ccc(C#N)c(C(F)(F)F)c1 (stereo not drawn) [Example 26, 4-(5-Hydroxy-3-meth-yl-pentyloxy)-2-tri-fluoromethyl-benzonitrile] |  | 777 |  | 
12 | C[C@H](O)C[C@H](C)Oc1ccc(C#N)c(C(F)(F)F)c1 [Example 16, (1S,3S)-4-(3-Hy-droxy-1-methyl-bu-toxy)-2-tri-fluoromethyl-benzonitrile] | > 1000 |  |  | IC50 [2]: 6 nM
13 | C[C@H](O)CCOc1ccc(C#N)c(C(F)(F)F)c1 [Example 8, (3S)-4-(3-Hydroxy-butoxy)-2-tri-fluoromethyl-benzonitrile] | > 1000 |  | 213 | 
14 | C[C@H](C[C@@H](C)O)Oc1ccc(C#N)c(C(F)(F)F)c1 [Example 17, (1R,3R)-4-(3-Hy-droxy-1-methyl-butoxy)-2-tri-fluoromethyl-benzonitrile] | 807 |  |  | IC50 [2]: 107 nM
15 | CCCC(O)C(CC)COc1ccc(C#N)c(C(F)(F)F)c1 (stereo not drawn) [Example 14, 4-(2-Ethyl-3-Hy-droxy-hexyl-oxy)-2-tri-fluoromethyl-benzonitrile] | 794 |  | 260 | 
16 | CC(O)CCOc1ccc(C#N)c(C(F)(F)F)c1 (stereo not drawn) [Example 7, 4-(3-Hydroxy-butoxy)-2-tri-fluoromethyl-benzonitrile] | > 1000 |  | 274 | 
17 | CC(O)CCC(C)Oc1ccc(C#N)c(Cl)c1 (stereo not drawn) [Example 28, 2-Chloro-4-(4-hydroxy-1-methyl-pentyloxy)-benzonitrile] | 263 | 49 |  | 
18 | CC(O)CCCCOc1ccc(C#N)c(C(F)(F)F)c1 (stereo not drawn) [Example 25, 4-(5-Hydroxy-hexyloxy)-2-tri-fluoromethyl-benzonitrile] | 838 |  | 504 | 
19 | C=CCCCCC(O)COc1ccc(C#N)c(C(F)(F)F)c1 (stereo not drawn) [Example 6, 4-(2-Hydroxy-oct-7-enyl-oxy)-2-tri-fluoromethyl-benzonitrile] | 662 |  | 415 | 
20 | C=CC(CO)Oc1ccc(C#N)c(Cl)c1 (stereo not drawn) [Example 31, 2-Chloro-4-(1-hydroxymethyl-allyloxy)-benzonitrile] |  |  | 156 | 
21 | CCCCCCC(O)COc1ccc(C#N)c(C(F)(F)F)c1 (stereo not drawn) [Example 5, 4-(2-Hydroxy-octyloxy)-2-tri-fluoromethyl-benzonitrile] | 509 | 32 |  | 
22 | N#Cc1ccc(OCCCCO)cc1Cl [Example 30, 2-Chloro-4-(4-hydroxy-butoxy)-benzonitrile] |  | 99 |  | 
23 | N#Cc1ccc(OCCCCO)cc1C(F)(F)F [Example 18, 4-(4-Hydroxy-butoxy)-2-tri-fluoromethyl-benzonitrile] | 398 | 74 |  | 
24 | N#Cc1ccc(OCCCO)cc1Cl [Example 29, 2-Chloro-4-(3-hydroxy-propoxy)-benzonitrile] |  | 394 |  | 
25 | CC(C)CCCC(O)COc1ccc(C#N)c(C(F)(F)F)c1 (stereo not drawn) [Example 4, 4-(2-Hydroxy-6-methyl-heptyloxy)-2-tri-fluoromethyl-benzonitrile] | > 1000 |  | 442 | 
